Converted amounts (≈) assume the structure as drawn. The source made the active and inactive calls. The rule behind the calls is not given here.
Tests used:
Candida albicans [1] = experiment: Synergistic antifungal activity against FLC-resistant Candida albicans ATCC 14053 cultured in spider medium assessed as inhibition of hyphal formation at 1 ug/ml measured after 4 to 8 hrs in presence of fluconazole by inverted microscopy; format: functional, organism-based; details: dose 1.0 µg/ml, time 4-8 hrs
Candida albicans [2] = experiment: Synergistic antifungal activity against FLC-resistant Candida albicans ATCC 14053 assessed as inhibition of hyphal formation by measuring down regulation of EFG1 gene expression at 1 ug/ml measured after 16 to 18 hrs in presence of fluconazole by qRT-PCR analysis; format: functional, organism-based; details: dose 1.0 µg/ml, time 16-18 hrs
Candida albicans [3] = experiment: Synergistic antifungal activity against clinical FLC-resistant Candida albicans 187 assessed as fractional inhibitory concentration index measured after 24 hrs in presence of fluconazole by microdilution method; format: functional
Candida albicans [4] = experiment: In vivo antifungal activity against FLC-resistant Candida albicans ATCC 14053 infected in Balb/c mouse assessed as reduction in lung fungal load at 15 mg/kg, ig measured after 6 days; format: functional, organism-based; details: time 6.0 day
Candida albicans [5] = experiment: Synergistic antifungal activity against FLC-resistant Candida albicans ATCC 14053 assessed as inhibition of hyphal formation by measuring down regulation of ALS3 gene expression at 1 ug/ml measured after 16 to 18 hrs in presence of fluconazole by qRT-PCR analysis; format: functional, organism-based; details: dose 1.0 µg/ml, time 16-18 hrs
Candida albicans [6] = experiment: Synergistic antifungal activity against clinical FLC-resistant Candida albicans 4508 measured after 24 hrs by microdilution method; format: functional
Candida albicans [7] = experiment: Antifungal activity against clinical FLC-resistant Candida albicans 4574 measured after 24 hrs by microdilution method; format: functional
Candida albicans [8] = experiment: Synergistic antifungal activity against FLC-resistant Candida albicans ATCC 14053 cultured in SD +10% FBS liquid medium assessed as inhibition of hyphal formation at 1 ug/ml measured after 2 hrs in presence of fluconazole by inverted microscopy; format: functional, organism-based; details: dose 1.0 µg/ml
Candida albicans [9] = experiment: Synergistic antifungal activity against FLC-sensitive Candida albicans SC5314 measured after 24 hrs in presence of fluconazole by microdilution method; format: functional
Candida albicans [10] = experiment: Synergistic antifungal activity against clinical FLC-resistant Candida albicans 602 measured after 24 hrs by microdilution method; format: functional
Candida albicans [11] = experiment: In vivo antifungal activity against FLC-resistant Candida albicans ATCC 14053 infected in Balb/c mouse assessed as increase in organ coefficients of thymus at 7.5 to 15 mg/kg, ig measured after 6 days in presence of fluconazole; format: functional, organism-based; details: dose 7.5-15 mg/kg, time 6.0 day
Candida albicans [12] = experiment: Synergistic antifungal activity against clinical FLC-resistant Candida albicans 187 measured after 24 hrs in presence of fluconazole by microdilution method; format: functional
Candida albicans [13] = experiment: Antifungal activity against FLC-resistant Candida albicans ATCC 14053 measured after 24 hrs by microdilution method; format: functional
[14] = Toxicity in Balb/c mouse assessed as weight loss at 15 mg/kg, ig measured daily for 6 days; format: organism-based; details: in vivo, po, 144 h, time 6 day
Candida albicans [15] = experiment: In vivo antifungal activity against FLC-resistant Candida albicans ATCC 14053 infected in Balb/c mouse assessed as reduction in infiltration of inflammatory cells at 7.5 to 15 mg/kg, ig measured after 6 days in presence of fluconazole by H and E staining based histopathological analysis; format: functional, organism-based; details: dose 7.5-15 mg/kg, time 6.0 day
Candida albicans [16] = experiment: Synergistic antifungal activity against FLC-resistant Candida albicans ATCC 14053 assessed as fractional inhibitory concentration index measured after 24 hrs by microdilution method; format: functional
Candida albicans [17] = experiment: Antifungal activity against FLC-sensitive Candida albicans SC5314 measured after 24 hrs by microdilution method; format: functional
Candida albicans [18] = experiment: Synergistic antifungal activity against clinical FLC-resistant Candida albicans 4574 measured after 24 hrs by microdilution method; format: functional
Candida albicans [19] = experiment: Synergistic antifungal activity against clinical FLC-resistant Candida albicans 381 assessed as fractional inhibitory concentration index measured after 24 hrs by microdilution method; format: functional
Candida albicans [20] = experiment: Synergistic antifungal activity against clinical FLC-resistant Candida albicans 3511 measured after 24 hrs by microdilution method; format: functional
Candida albicans [21] = experiment: Induction of reactive oxygen species production in FLC-resistant Candida albicans ATCC 14053 at 1 ug/mL measured after 16 to 18 hrs in presence of fluconazole by DCFH-DA staining based fluorescence assay; format: functional, organism-based; details: dose 1.0 µg/ml, time 16-18 hrs
Candida albicans [22] = experiment: Synergistic antifungal activity against clinical FLC-resistant Candida albicans 550 measured after 24 hrs by microdilution method; format: functional
Candida albicans [23] = experiment: In vivo antifungal activity against FLC-resistant Candida albicans ATCC 14053 infected in Balb/c mouse assessed as restoration of kidney morphology at 7.5 to 15 mg/kg, ig measured after 6 days in presence of fluconazole by H and E staining based histopathological analysis; format: functional, organism-based; details: dose 7.5-15 mg/kg, time 6.0 day

With `CN1CCN(c2nc3ccccc3cc2/C=C/C(=O)c2ccc(N3CCN(Cc4ccc(C(F)(F)F)cc4)CC3)cc2)CC1` the inhibition (Candida albicans [1]) was “Active”, the inhibition (Candida albicans [2]) was “Active” and the “fractional inhibitory concentration index (FICI)” value (Candida albicans [3]) was 0.01. The Activity (Candida albicans [4]) was “inactive”, the inhibition (Candida albicans [5]) was “Active” and the MIC80 (Candida albicans [6]) was 1.22 µg/mL. The MIC80 (Candida albicans [7]) was greater than 40 µg/mL, the inhibition (Candida albicans [8]) was “inactive” and the MIC80 (Candida albicans [9]) was 0.99 µg/mL. The MIC80 (Candida albicans [10]) was 5.67 µg/mL, the Activity (Candida albicans [11]) was “Active” and the MIC80 (Candida albicans [12]) was 0.54 µg/mL. The MIC80 (Candida albicans [13]) was greater than 40 µg/mL, the Activity [14] was “Non-Toxic” and the Activity (Candida albicans [15]) was “Active”. The “fractional inhibitory concentration index (FICI)” value (Candida albicans [16]) was 0.02, the MIC80 (Candida albicans [17]) was 27.8 µg/mL (≈ 46.3 µM) and the MIC80 (Candida albicans [18]) was 0.91 µg/mL. The “fractional inhibitory concentration index (FICI)” value (Candida albicans [19]) was 0.03, the MIC80 (Candida albicans [20]) was 5.89 µg/mL and the Activity (Candida albicans [21]) was “Active”. For the same compound, the MIC80 (Candida albicans [22]) was 5.9 µg/mL and the Activity (Candida albicans [23]) was “Active”.

Reference: ChEMBL document CHEMBL5625249, “Optimization and antifungal activity of quinoline derivatives linked to chalcone moiety combined with FLC against Candida albicans” (Eur J Med Chem, 2023)
